Where “and” joins values, the source holds several entries; their conditions need not be identical. Identical values can stand only once. Marks after values point to notes of the source that are not given here.
What was measured:
[1] = test system: CYPs 1A2, 2B6, 2C8, 2C9, 2C19 and 2D6 (all tested CYPs but CYP3A4/5); test: In vitro CYP inhibition in human liver microsomes, CYPs not named one by one; type: in vitro ADME; conditions: human, read-out: IC50 for the other CYPs tested
CYP1A2 = test: Induction of CYP enzymes in human hepatocytes; conditions: for Relative Effectiveness ± SD Based on CYP Activity / Relative Effectiveness ± SD Based on CYP mRNA: percent of positive control
Description: (§1) In vitro induction of CYP mRNA (CYPs 1A2, 2C8, 2C9 and 3A4) or enzyme activity (CYPs 1A2, 2C19 and 3A4) was assessed in human hepatocytes.

CYP3A4 = test: Induction of CYP enzymes in human hepatocytes; conditions: for Relative Effectiveness ± SD Based on CYP Activity / Relative Effectiveness ± SD Based on CYP mRNA: percent of positive control
Description: as §1

[2] = Study 1 Cohort 1: single dose entrectinib alone or with itraconazole, plasma pharmacokinetics; conditions: for M5/Entrectinib ratio, AUCinf / M5/Entrectinib ratio, Cmax: arithmetic mean (CV)
Description: All doses of study medication were administered at the study center.

CYP2B6 [3] = target: T1, CYP2B6 (Homo sapiens, UniProt P20813); test: In vitro CYP inhibition in human liver microsomes; type: in vitro ADME; parameters: purchased Corning-Gentest
T1 sequence (P20813 1-491): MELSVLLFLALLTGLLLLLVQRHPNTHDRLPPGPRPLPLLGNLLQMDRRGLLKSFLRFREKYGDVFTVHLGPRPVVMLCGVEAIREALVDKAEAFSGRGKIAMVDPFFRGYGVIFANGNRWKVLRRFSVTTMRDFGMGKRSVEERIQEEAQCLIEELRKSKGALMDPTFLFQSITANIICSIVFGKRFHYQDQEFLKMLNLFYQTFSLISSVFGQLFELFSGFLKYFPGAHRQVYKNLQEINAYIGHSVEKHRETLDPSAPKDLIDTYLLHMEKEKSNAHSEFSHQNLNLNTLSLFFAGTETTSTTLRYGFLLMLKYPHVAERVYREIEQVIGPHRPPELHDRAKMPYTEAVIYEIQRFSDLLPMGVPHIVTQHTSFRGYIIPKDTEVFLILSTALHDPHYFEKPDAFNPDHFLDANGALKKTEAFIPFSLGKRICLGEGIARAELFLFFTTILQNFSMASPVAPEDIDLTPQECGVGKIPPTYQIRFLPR

CYP2D6 = CYP2D6 (Homo sapiens, UniProt P10635); test: In vitro CYP inhibition in human liver microsomes; type: in vitro ADME; parameters: purchased Corning-Gentest
Chain of CYP2D6 (P10635 whole entry): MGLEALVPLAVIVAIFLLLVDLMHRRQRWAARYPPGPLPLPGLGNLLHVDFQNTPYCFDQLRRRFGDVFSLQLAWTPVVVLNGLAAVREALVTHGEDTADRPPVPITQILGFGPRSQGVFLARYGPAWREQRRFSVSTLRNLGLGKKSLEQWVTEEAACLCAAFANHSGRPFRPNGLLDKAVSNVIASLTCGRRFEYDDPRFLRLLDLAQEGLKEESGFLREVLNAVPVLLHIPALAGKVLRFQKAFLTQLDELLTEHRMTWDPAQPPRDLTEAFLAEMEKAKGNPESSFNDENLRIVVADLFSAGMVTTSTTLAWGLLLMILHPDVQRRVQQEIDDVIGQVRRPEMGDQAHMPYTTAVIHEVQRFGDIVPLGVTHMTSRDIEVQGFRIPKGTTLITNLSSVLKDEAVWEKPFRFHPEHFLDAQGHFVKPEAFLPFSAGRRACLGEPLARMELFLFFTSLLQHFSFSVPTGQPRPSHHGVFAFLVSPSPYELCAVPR

CYP2B6 [4] = target: T1, CYP2B6; test: Metabolism by recombinantly expressed CYP enzymes
CYP2C8 = target: T2, CYP2C8 (Homo sapiens, UniProt P10632); test: Metabolism by recombinantly expressed CYP enzymes
T2 sequence (P10632 1-490): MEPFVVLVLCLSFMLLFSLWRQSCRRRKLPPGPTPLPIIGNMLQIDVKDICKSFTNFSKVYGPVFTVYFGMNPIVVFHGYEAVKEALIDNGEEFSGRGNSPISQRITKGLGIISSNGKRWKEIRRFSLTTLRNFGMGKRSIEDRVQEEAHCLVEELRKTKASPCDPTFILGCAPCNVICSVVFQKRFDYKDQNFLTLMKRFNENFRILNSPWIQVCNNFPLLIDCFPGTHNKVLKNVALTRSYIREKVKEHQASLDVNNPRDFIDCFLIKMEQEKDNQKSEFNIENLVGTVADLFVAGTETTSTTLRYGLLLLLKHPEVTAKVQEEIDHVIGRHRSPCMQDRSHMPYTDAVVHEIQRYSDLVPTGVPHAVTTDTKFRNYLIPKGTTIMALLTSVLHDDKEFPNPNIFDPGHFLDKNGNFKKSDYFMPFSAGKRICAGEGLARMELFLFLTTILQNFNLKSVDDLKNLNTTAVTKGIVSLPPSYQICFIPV

CYP3A5 = CYP3A5 (Homo sapiens, UniProt P20815); test: Metabolism by recombinantly expressed CYP enzymes; parameters: Entrectinib Metabolism to M5 / M5 Metabolism: key to the marks not given beside the values
Chain of CYP3A5 (P20815 whole entry): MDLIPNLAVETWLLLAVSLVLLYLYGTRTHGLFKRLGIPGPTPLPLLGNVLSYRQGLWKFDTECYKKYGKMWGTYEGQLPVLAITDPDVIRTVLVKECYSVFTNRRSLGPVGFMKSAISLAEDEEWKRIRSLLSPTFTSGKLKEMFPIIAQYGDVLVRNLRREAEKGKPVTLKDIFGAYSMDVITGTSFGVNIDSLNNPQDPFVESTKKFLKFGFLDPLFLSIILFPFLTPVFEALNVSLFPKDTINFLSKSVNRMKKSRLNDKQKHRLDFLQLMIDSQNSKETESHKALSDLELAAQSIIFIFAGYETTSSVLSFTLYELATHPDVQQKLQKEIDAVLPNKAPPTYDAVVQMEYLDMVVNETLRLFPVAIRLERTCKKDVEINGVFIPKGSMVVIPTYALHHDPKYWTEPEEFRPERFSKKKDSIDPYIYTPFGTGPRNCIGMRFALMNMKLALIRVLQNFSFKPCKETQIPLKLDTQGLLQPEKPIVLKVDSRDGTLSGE

[5] = test system: human CYPs 1A2, 2B6, 2C8, 2C9, 2C19, 2D6 and 3A; test: In vitro CYP inhibition in human liver microsomes, CYPs not named one by one; type: in vitro ADME; conditions: entrectinib: all but CYP3A4/5, M5: all but CYP2C8, read-out: IC50 for the other CYPs tested
[6] = Intrinsic clearance in long-term micropatterned co-cultured human hepatocytes; type: in vitro ADME
CYP2C19 = test: Induction of CYP enzymes in human hepatocytes; conditions: percent of positive control
Description: as §1

CYP2B6 [7] = test: Induction of CYP enzymes in human hepatocytes; type: in vitro ADME; conditions: percent of positive control
[8] = test system: CYPs 1A2, 2B6, 2C19, and 3A4; test: Induction of CYP enzymes in human hepatocytes, CYPs tested taken together; type: in vitro ADME
[9] = Estimated free plasma Cmax in patients treated at 600 mg QD; type: in vivo, human; conditions: unbound fraction of 1% used
[10] = humans, mass balance study; cited from earlier work
[11] = parameters: method as in Roche data on file; conditions: human plasma; ref Roche data on file; cited from earlier work
P-gp = P-gp (Homo sapiens, UniProt P08183); test: In vitro P-gp substrate assay (Caco-2 and MDCKII-MDR1 cells); type: in vitro ADME; parameters: expressed in transfected cells; host or cells: MDCKII-MDR1 cells; also Caco-2 cells
Chain of P-gp (P08183 whole entry): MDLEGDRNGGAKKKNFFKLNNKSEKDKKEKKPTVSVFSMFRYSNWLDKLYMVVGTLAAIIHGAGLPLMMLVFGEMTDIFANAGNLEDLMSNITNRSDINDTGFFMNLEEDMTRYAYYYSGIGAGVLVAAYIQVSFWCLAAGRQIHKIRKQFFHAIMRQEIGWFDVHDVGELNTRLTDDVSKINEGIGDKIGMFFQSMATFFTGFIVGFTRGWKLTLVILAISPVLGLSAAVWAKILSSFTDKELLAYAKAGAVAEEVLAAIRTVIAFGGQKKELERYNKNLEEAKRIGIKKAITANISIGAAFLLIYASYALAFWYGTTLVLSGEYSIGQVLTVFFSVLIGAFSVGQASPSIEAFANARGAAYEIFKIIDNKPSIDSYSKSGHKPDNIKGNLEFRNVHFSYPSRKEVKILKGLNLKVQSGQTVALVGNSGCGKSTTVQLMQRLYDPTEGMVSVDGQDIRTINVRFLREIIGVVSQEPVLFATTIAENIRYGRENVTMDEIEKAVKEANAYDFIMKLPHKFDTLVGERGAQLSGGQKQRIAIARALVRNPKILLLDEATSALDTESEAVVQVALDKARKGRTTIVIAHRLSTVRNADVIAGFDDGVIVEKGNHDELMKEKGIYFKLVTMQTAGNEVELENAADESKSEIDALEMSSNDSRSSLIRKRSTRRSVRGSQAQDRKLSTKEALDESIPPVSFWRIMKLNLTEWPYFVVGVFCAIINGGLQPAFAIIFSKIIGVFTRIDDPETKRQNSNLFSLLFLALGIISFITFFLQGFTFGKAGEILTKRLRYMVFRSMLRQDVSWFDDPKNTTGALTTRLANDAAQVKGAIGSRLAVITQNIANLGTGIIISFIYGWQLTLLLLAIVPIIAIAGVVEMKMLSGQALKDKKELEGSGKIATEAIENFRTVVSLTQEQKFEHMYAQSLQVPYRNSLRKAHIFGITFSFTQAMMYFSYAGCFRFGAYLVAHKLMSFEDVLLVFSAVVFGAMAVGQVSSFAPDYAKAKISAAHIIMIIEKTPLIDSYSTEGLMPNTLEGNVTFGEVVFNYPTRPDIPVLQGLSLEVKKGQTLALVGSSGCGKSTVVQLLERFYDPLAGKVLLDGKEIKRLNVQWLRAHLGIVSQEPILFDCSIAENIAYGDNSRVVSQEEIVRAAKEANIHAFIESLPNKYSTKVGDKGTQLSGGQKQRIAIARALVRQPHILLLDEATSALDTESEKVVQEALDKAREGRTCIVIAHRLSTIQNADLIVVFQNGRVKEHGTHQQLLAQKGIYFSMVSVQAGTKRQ

[12] = Entrectinib 100 mg alone, geometric mean (geometric CV)
[13] = Entrectinib 100 mg with itraconazole 200 mg QD, geometric mean (geometric CV)
[14] = Entrectinib 100 mg with itraconazole

CN1CCN(c2ccc(C(=O)Nc3n[nH]c4ccc(Cc5cc(F)cc(F)c5)cc34)c(NC3CCOCC3)c2)CC1 [Entrectinib]
IC50 [1]: > 10 µM
induction of CYP1A2 mRNA or enzyme activity (CYP1A2; human hepatocytes): did not significantly induce
CYP3A4 induction in vitro, in words (CYP3A4; in vitro): weak CYP3A4 inducer
t1/2 [2, 12]: 20.2 (17%) h
t1/2 [2, 13]: 49.8 (22%) h
increase of AUCinf ([2]; entrectinib coadministered with itraconazole vs alone): 504%
Tmax ([2]; human, in vivo): 5 h
AUC(0-inf) ([2]; human, in vivo, 100 mg): 6.19 µM·h
Cmax ([2]; human, in vivo, 100 mg): 358 nM
Tmax ([2]; human, in vivo, 100 mg): 2 h
half-life ([2]; human, in vivo, 100 mg, t1/2, Entrectinib 100 mg alone, geometric mean (geometric CV)): 20 h
half-life ([2]; human, in vivo, t1/2, Entrectinib 100 mg with itraconazole 200 mg QD, geometric mean (geometric CV)): 50 h
median Tmax later ([2]; with itraconazole vs entrectinib alone): approximately 3 h
IC50 (CYP2B6 [3]): > 10 µM
IC50 (CYP2D6): > 10 µM
Entrectinib Metabolism to M5 (CYP2B6 [4]): -
Entrectinib Metabolism to other Products (CYP2B6 [4]): -
Entrectinib Metabolism to M5 (CYP2C8): +
Entrectinib Metabolism to other Products (CYP2C8): +
Entrectinib Metabolism to M5 (CYP3A5): ++
Entrectinib Metabolism to other Products (CYP3A5): +

O=C(Nc1n[nH]c2ccc(Cc3cc(F)cc(F)c3)cc12)c1ccc(N2CCNCC2)cc1NC1CCOCC1 [M5]
IC50 [5]: > 10 µM
intrinsic clearance relative to entrectinib [6]: approximately twofold lower intrinsic clearance than entrectinib
Relative Effectiveness ± SD Based on CYP Activity (CYP1A2; M5 0.5 µM): 0.575% ±0.657
Relative Effectiveness ± SD Based on CYP mRNA (CYP1A2; M5 0.5 µM): 0.22% ±0.23
Relative Effectiveness ± SD Based on CYP Activity (CYP1A2; M5 2.5 µM): 1.30% ±1.4
Relative Effectiveness ± SD Based on CYP mRNA (CYP1A2; M5 2.5 µM): 1.22% ±0.87
Relative Effectiveness ± SD Based on CYP Activity (CYP1A2; M5 10 µM): 0.445% ±0.27
Relative Effectiveness ± SD Based on CYP mRNA (CYP1A2; M5 10 µM): 1.70% ±0.15
Relative Effectiveness ± SD Based on CYP Activity (CYP2C19; M5 0.5 µM): -1.21% ±0.94
Relative Effectiveness ± SD Based on CYP Activity (CYP2C19; M5 2.5 µM): -3.22% ±3.41
Relative Effectiveness ± SD Based on CYP Activity (CYP2C19; M5 10 µM, n=2): -9.87% ^a
Relative Effectiveness ± SD Based on CYP Activity (CYP3A4; M5 0.5 µM): 1.25% ±1.17
Relative Effectiveness ± SD Based on CYP mRNA (CYP3A4; M5 0.5 µM): 1.16% ±1.47
Relative Effectiveness ± SD Based on CYP Activity (CYP3A4; M5 2.5 µM): 4.61% ±3.06
Relative Effectiveness ± SD Based on CYP mRNA (CYP3A4; M5 2.5 µM): 5.9% ±5.01
Relative Effectiveness ± SD Based on CYP Activity (CYP3A4; M5 10 µM): 5.42% ±4.45
Relative Effectiveness ± SD Based on CYP mRNA (CYP3A4; M5 10 µM): 16.5% ±11.2
impact on the mRNA expression or activity of CYP3A4 (CYP3A4; human hepatocytes): no significant impact
Relative Effectiveness ± SD Based on CYP Activity (CYP2B6 [7]; M5 0.5 µM): 2.98% ±2.91
Relative Effectiveness ± SD Based on CYP mRNA (CYP2B6 [7]; M5 0.5 µM): 4.22% ±4.37
Relative Effectiveness ± SD Based on CYP Activity (CYP2B6 [7]; M5 2.5 µM): 9.02% ±8.75
Relative Effectiveness ± SD Based on CYP mRNA (CYP2B6 [7]; M5 2.5 µM): 19.3% ±11.4
Relative Effectiveness ± SD Based on CYP Activity (CYP2B6 [7]; M5 10 µM): 9.56% ±8.52
Relative Effectiveness ± SD Based on CYP mRNA (CYP2B6 [7]; M5 10 µM): 26.5% ±10.7
impact on the activities of the CYPs tested [8]: no significant impact
AUCinf ([2]; Entrectinib 100 mg alone, single dose, healthy subjects, fasted, geometric mean (geometric CV)): 1710 (30%) nM•h
M5/Entrectinib ratio, AUCinf ([2]; Entrectinib 100 mg alone): 0.288 (28%)
M5/Entrectinib ratio, Cmax ([2]; Entrectinib 100 mg alone): 0.151 (26%)
Cmax [2, 12]: 52.3 nM
t1/2 [2, 12]: 41 h and 40.8 (22%) h
Tmax ([2]; Entrectinib 100 mg alone, median (minimum, maximum)): 5.0 (3.0, 5.0) h
AUCinf [2, 13]: 4310 (30%) nM•h
Cmax [2, 13]: 31.5 nM
t1/2 [2, 13]: 88.0 (32%) h
Tmax ([2]; Entrectinib 100 mg with itraconazole 200 mg QD, median (minimum, maximum)): 6.0 (5.0, 48.0) h
M5/Entrectinib ratio, AUCinf [2, 14]: 0.124 (29%)
M5/Entrectinib ratio, Cmax [2, 14]: 0.0538 (34%)
increase in AUCinf ([2]; coadministration of itraconazole with entrectinib): approximately 2.5 fold
M5 exposure as share of entrectinib exposure (mean M5/entrectinib ratio for AUCinf) ([2]; entrectinib 100 mg alone): approximately 29%
M5 exposure as share of entrectinib exposure (mean M5/entrectinib ratio for AUCinf) ([2]; entrectinib 100 mg coadministered with itraconazole): 12%
estimated free Cmax in plasma [9]: 13.4 nM
share of total circulating radioactivity [10]: 12%
unbound fraction [11]: < 1%
IC50 (CYP2B6 [3]): > 10 µM
IC50 (CYP2D6): > 10 µM
M5 Metabolism (CYP2B6 [4]): -
M5 Metabolism (CYP2C8): -
M5 Metabolism (CYP3A5): ++
P-gp substrate status (P-gp): substrate

Source: publication PMC8763936 (Investigational New Drugs, 2021)
